Experimental data taken from paper PMC12163085, “Targeting transcription factors through an IMiD independent zinc finger domain” (EMBO Molecular Medicine, 2025).

Columns and labels:
SNU387 = assay: cells; set-up: species or system SNU398 and SNU387 isogenic lines; CellTiter-Glo luminescence viability dose response in 384-well plates, nonlinear regression; conditions: Homo sapiens, SNU-387; 72 h cell viability; read-out: EC50 / SNU387Lo
Protocol: (§1) Empty vector, SALL4A, and SALL4B expressing isogenic cell lines were generated by transducing the SALL4 negative hepatocellular carcinoma SNU-387 cells with empty vector, SALL4A, or SALL4B FUW-Luc-mCh-puro lentiviral constructs. Cells were plated in 50 μl of RPMI culture media in 384-well white flat-bottom plates (Corning) and incubated at 37 °C in a humidified atmosphere of 5% CO2 overnight. Cell numbers per well were 1500 for SNU-398, and 750 for SNU-387 and SNU-387 isogenic lines. After overnight incubation, varying concentrations of compounds 1–80 were added to cells with multichannel electronic pipettes (Rainin). Cells were then incubated for 72 h at 37 °C in a humidified atmosphere of 5% CO2 before 10 μl of CellTiter-Glo reagent was added to the wells with the MultiFlo Microplate Dispenser (BioTek). Cells were incubated at room temperature for a minimum of 10 min, after which luminescence readings were recorded by an Infinite M1000 Microplate Reader (Tecan). Each data point was performed in n = 3 independent cell cultures. IC50 of compounds were determined using nonlinear regression fitting from Prism (GraphPad). Cell-based screening was next employed to evaluate the growth inhibitory activity of the test compounds against SALL4 expressing malignant cells. SNU398, a liver cancer cell line with high endogenous levels of SALL4, and SNU387, a liver cancer cell line with undetectable levels of SALL4, were used for comparison. Cells were incubated with the test compound at 1 μM for 72 h, after which cell viability was assessed. […] Next, we carried out dose escalation studies on all SH compounds to deduce their EC50 values on SNU387 and SNU398. In order to interrogate the effects of compounds targeting SALL4, we created isogenic cells by overexpressing SALL4A (SNU387-TgSALL4A) or SALL4B (SNU387-TgSALL4B) in SNU387 cells (Tan et al, [2019]) (Fig. 2B, and Dataset EV4). The EC50 of SH2, SH6, and SH7 in SALL4 high SNU398 cells were 0.4 μM, 0.5 μM, and 0.3 μM, respectively. In contrast, the EC50 values of the same compounds were more than 10 μM on SALL4 low SNU387 cells.

SNU398 = assay: cells; set-up: species or system SNU387, SNU398 and SNU387 isogenic lines; CellTiter-Glo luminescence viability dose response in 384-well plates, nonlinear regression; conditions: Homo sapiens, SNU-398; 72 h cell viability; read-out: EC50 / SNU398Hi
Protocol: as §1

SMILES | EC50 (SNU387) [µM] | EC50 (SNU398) [µM]
Nc1ccc(F)cc1NC(=O)/C=C/c1cccnc1Nc1ccc(F)cc1 [SH21] | > 30 | ~25
Nc1ccccc1NC(=O)c1cccnc1Nc1ccc(C(F)(F)F)cc1 [SH65] | > 30 | ~25
O=C(NO)c1cccnc1Nc1ccc(Cl)cc1 [SH80] | > 30 | > 30
COc1cc(Nc2ncccc2C(=O)Nc2cc(Cl)c(Cl)cc2N)cc(OC)c1OC [SH47] | > 30 | ~18
Nc1ccc(Cl)cc1NC(=O)/C=C/c1cccnc1Nc1ccc(Cl)cc1 [SH38] | > 30 | ~15
Cc1ccc(N)c(NC(=O)c2cccnc2Nc2ccc(C(F)(F)F)cc2)c1 [SH67] | > 30 | > 30
COc1ccc(Nc2ncccc2C(=O)Nc2cc(C)ccc2N)cc1 [SH51] | > 30 | > 30
Nc1ccc(Cl)cc1NC(=O)c1cccnc1Nc1ccc(Cl)cc1 [SH78] | > 30 | ~25
COc1cc(Nc2ncccc2/C=C/C(=O)Nc2cc(C)c(C)cc2N)cc(OC)c1OC [SH4] | > 30 | ~2
O=C(/C=C/c1cccnc1Nc1ccc(C(F)(F)F)cc1)NO [SH32] | > 30 | ~8
COc1ccc(N)c(NC(=O)c2cccnc2Nc2ccc(Cl)cc2)c1 [SH74] | > 30 | ~20
Cc1cc(N)c(NC(=O)/C=C/c2cccnc2Nc2ccc(Cl)cc2)cc1C [SH36] | > 30 | ~17
COc1ccc(Nc2ncccc2C(=O)Nc2cc(C)c(C)cc2N)cc1 [SH52] | > 30 | > 30
COc1ccc(Nc2ncccc2/C=C/C(=O)Nc2ccccc2N)cc1 [SH9] | > 30 | ~25
COc1ccc(Nc2ncccc2/C=C/C(=O)Nc2cc(C)c(C)cc2N)cc1 [SH12] | > 30 | ~25
Cc1ccc(N)c(NC(=O)c2cccnc2Nc2ccc(Cl)cc2)c1 [SH75] | > 30 | > 30
Nc1ccc(F)cc1NC(=O)c1cccnc1Nc1ccc(Cl)cc1 [SH77] | > 30 | ~25
Nc1ccccc1NC(=O)/C=C/c1cccnc1Nc1ccc(C(F)(F)F)cc1 [SH25] | > 30 | 30
Cc1cc(N)c(NC(=O)/C=C/c2cccnc2Nc2ccc(F)cc2)cc1C [SH20] | > 30 | ~12
Nc1ccccc1NC(=O)c1cccnc1Nc1ccc(Cl)cc1 [SH73] | > 30 | ~30
COc1ccc(Nc2ncccc2C(=O)NO)cc1 [SH56] | > 30 | > 30
COc1cc(Nc2ncccc2C(=O)NO)cc(OC)c1OC [SH48] | > 30 | > 30
O=C(/C=C/c1cccnc1Nc1ccc(Cl)cc1)NO [SH40] | > 30 | ~15
Nc1ccc(F)cc1NC(=O)/C=C/c1cccnc1Nc1ccc(Cl)cc1 [SH37] | > 30 | ~17
COc1ccc(Nc2ncccc2/C=C/C(=O)NO)cc1 [SH16] | > 30 | > 30
Cc1ccc(N)c(NC(=O)c2cccnc2Nc2ccc(F)cc2)c1 [SH59] | > 30 | > 30
COc1cc(Nc2ncccc2C(=O)Nc2ccccc2N)cc(OC)c1OC [SH41] | > 30 | > 30
COc1ccc(N)c(NC(=O)/C=C/c2cccnc2Nc2ccc(F)cc2)c1 [SH18] | > 30 | ~2
COc1ccc(Nc2ncccc2C(=O)Nc2cc(OC)ccc2N)cc1 [SH50] | > 30 | > 30
COc1ccc(Nc2ncccc2C(=O)Nc2cc(Cl)c(Cl)cc2N)cc1 [SH55] | > 30 | ~25

The remaining lines, values ahead:

EC50 (SNU387) [µM] | EC50 (SNU398) [µM] | SMILES
> 30 | > 30 | Cc1cc(N)c(NC(=O)c2cccnc2Nc2ccc(C(F)(F)F)cc2)cc1C [SH68]
> 30 | ~30 | Nc1ccccc1NC(=O)/C=C/c1cccnc1Nc1ccc(F)cc1 [SH17]
> 30 | ~25 | Nc1ccc(Cl)cc1NC(=O)c1cccnc1Nc1ccc(C(F)(F)F)cc1 [SH70]
> 30 | > 30 | COc1ccc(Nc2ncccc2C(=O)Nc2cc(Cl)ccc2N)cc1 [SH54]
> 30 | > 30 | COc1ccc(N)c(NC(=O)c2cccnc2Nc2ccc(F)cc2)c1 [SH58]
> 30 | ~2.5 | COc1ccc(Nc2ncccc2/C=C/C(=O)Nc2cc(OC)ccc2N)cc1 [SH10]
> 30 | ~12 | Cc1ccc(N)c(NC(=O)/C=C/c2cccnc2Nc2ccc(C(F)(F)F)cc2)c1 [SH27]
> 30 | ~20 | Nc1ccccc1NC(=O)/C=C/c1cccnc1Nc1ccc(Cl)cc1 [SH33]
> 30 | > 30 | COc1cc(Nc2ncccc2C(=O)Nc2cc(Cl)ccc2N)cc(OC)c1OC [SH46]
~30 | ~15 | Nc1ccc(Cl)cc1NC(=O)/C=C/c1cccnc1Nc1ccc(F)cc1 [SH22]
> 30 | > 30 | Cc1cc(N)c(NC(=O)c2cccnc2Nc2ccc(F)cc2)cc1C [SH60]
> 30 | ~20 | Nc1cc(Cl)c(Cl)cc1NC(=O)c1cccnc1Nc1ccc(Cl)cc1 [SH79]
> 30 | ~30 | Cc1cc(N)c(NC(=O)c2cccnc2Nc2ccc(Cl)cc2)cc1C [SH76]
> 30 | ~25 | Nc1ccc(Cl)cc1NC(=O)c1cccnc1Nc1ccc(F)cc1 [SH62]
> 30 | > 30 | Nc1ccccc1NC(=O)c1cccnc1Nc1ccc(F)cc1 [SH57]
> 30 | > 30 | O=C(NO)c1cccnc1Nc1ccc(F)cc1 [SH64]
> 30 | ~20 | COc1ccc(Nc2ncccc2/C=C/C(=O)Nc2cc(Cl)c(Cl)cc2N)cc1 [SH15]
> 30 | > 30 | COc1ccc(Nc2ncccc2C(=O)Nc2cc(F)ccc2N)cc1 [SH53]
~20 | ~9 | Cc1ccc(N)c(NC(=O)/C=C/c2cccnc2Nc2ccc(Cl)cc2)c1 [SH35]

EC50 (SNU387) [µM] | EC50 (SNU398) [µM] | SMILES
> 30 | ~2.5 | COc1cc(Nc2ncccc2/C=C/C(=O)Nc2cc(F)ccc2N)cc(OC)c1OC [SH5]
> 30 | ~16 | Nc1ccc(F)cc1NC(=O)c1cccnc1Nc1ccc(C(F)(F)F)cc1 [SH69]
> 30 | > 30 | COc1ccc(Nc2ncccc2C(=O)Nc2ccccc2N)cc1 [SH49]
> 30 | > 30 | COc1cc(Nc2ncccc2/C=C/C(=O)NO)cc(OC)c1OC [SH8]
> 30 | ~12 | Nc1ccc(F)cc1NC(=O)/C=C/c1cccnc1Nc1ccc(C(F)(F)F)cc1 [SH29]
~30 | ~12 | Nc1ccc(Cl)cc1NC(=O)/C=C/c1cccnc1Nc1ccc(C(F)(F)F)cc1 [SH30]
> 30 | ~1.5 | COc1cc(Nc2ncccc2/C=C/C(=O)Nc2cc(C)ccc2N)cc(OC)c1OC [SH3]
~25 | ~12 | Cc1cc(N)c(NC(=O)/C=C/c2cccnc2Nc2ccc(C(F)(F)F)cc2)cc1C [SH28]
~14 | ~10 | Nc1cc(Cl)c(Cl)cc1NC(=O)/C=C/c1cccnc1Nc1ccc(C(F)(F)F)cc1 [SH31]
> 30 | ~25 | COc1ccc(N)c(NC(=O)c2cccnc2Nc2ccc(C(F)(F)F)cc2)c1 [SH66]
~10 | ~3 | COc1ccc(Nc2ncccc2/C=C/C(=O)Nc2cc(C)ccc2N)cc1 [SH11]
~25 | ~16 | Nc1cc(Cl)c(Cl)cc1NC(=O)/C=C/c1cccnc1Nc1ccc(Cl)cc1 [SH39]
~12 | ~6 | COc1ccc(N)c(NC(=O)/C=C/c2cccnc2Nc2ccc(C(F)(F)F)cc2)c1 [SH26]
~25 | ~7 | COc1ccc(Nc2ncccc2/C=C/C(=O)Nc2cc(Cl)ccc2N)cc1 [SH14]
~5 | ~3 | COc1ccc(N)c(NC(=O)/C=C/c2cccnc2Nc2ccc(Cl)cc2)c1 [SH34]
~30 | ~12 | COc1cc(Nc2ncccc2C(=O)Nc2cc(C)ccc2N)cc(OC)c1OC [SH43]
~30 | ~3 | COc1cc(Nc2ncccc2/C=C/C(=O)Nc2ccccc2N)cc(OC)c1OC [SH1]
~25 | ~12 | Nc1cc(Cl)c(Cl)cc1NC(=O)/C=C/c1cccnc1Nc1ccc(F)cc1 [SH23]
